# Reference: patent publication US20250332173A1, “COMPOUNDS AND METHODS FOR MODULATING NUCLEIC ACID SPLICING” (REMIX THERAPEUTICS INC., priority 2021, published 2025)
# Experiments:
# Target C = assay: HiBiT protein abundance assay, Target C HiBiT K562 cell line; assay type: cell-based; details: Homo sapiens; HiBiT lytic detection, modified K562 cells, 24 hours, top dose 10 μM; read-out: Effect on protein abundance, Target C (IC50)
# Method in brief: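 HiBiT knock-in K562 cells (10,000/well) were treated for 24 h at 37 °C with a 10-point 3-fold dilution series, top final concentration 10 μM, DMSO ≤0.25%. Lytic HiBiT luminescence was read, normalized to unmodified K562 and DMSO-treated controls, and IC50 was interpolated from a four-parameter logistic fit.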
# [1] = system: K562 (human chronic myelogenous leukemia) cells; assay: Cell Titer Glo 2.0 cell viability assay; assay type: cell-based; details: Homo sapiens, K562, 72 h, K562 cells, 72 hours, Cell Titer Glo 2.0; read-out: K562 GI50
# Experimental: Compounds described herein were screened for toxicity in K562 (human chronic myelogenous leukemia) cells using a Cell Titer Glo 2.0 assay.
# Cells were plated at 500 cells/well (K562 cells) in 45 μL of IMDM supplemented with 1000 FBS in a 384-well opaque plate. Wells containing only medium were used as a blank control. Test compounds (e.g., compounds ofFormula (I), (II), (III), (IV), (V), (VI), (VII), (VIII), and (IX)) were first serially diluted in DMSO then diluted 1:100 with IMDM+10% FBS. The final concentration of DMSO was 0.1% in each well. The cells were incubated for 72 hours at 37° C. and 500 CO2 before assaying with Cell Titer Glo 2.0 reagent.
# SMN2 mRNA = assay: RT-qPCR splicing assay, SMN2 canonical junction (CJ) mRNA; assay type: cell-based, human; details: Homo sapiens; canonical junction qPCR panel, Table 5; read-out: SMN2 (decrease in CJ mRNA levels, IC50)
# Method in brief: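 A673 or K562 cells were treated for 24 h at 37 °C with compound in 11-point 3-fold dilution (top 10 uM final, DMSO ≤0.25%). Lysates then went to one-step RT-qPCR measuring canonical-junction mRNA, normalized to GAPDH, GUSB or PPIA.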
SMILES,IC50 (Target C) [µM],GI50 [1] [µM],IC50 (SMN2 mRNA) [µM]
Cc1cn2cc(-n3cnc4ccc(N5CCNCC5)cc4c3=O)cc(F)c2n1 [Compound 2195],> 10,> 10,> 10
Cn1cc2cc(-n3cnc4ccc(N5CCNCC5)cc4c3=O)cc(F)c2n1 [Compound 2196],> 10,> 10,> 10
CN(c1ccc2ncn(-c3cc(F)c4nn(C)cc4c3)c(=O)c2c1)C1CCNCC1 [Compound 2198],> 10,> 10,> 10
CN1CCC(N(C)c2ccc3ncn(-c4cc(F)c5nn(C)cc5c4)c(=O)c3c2)CC1 [Compound 2199],> 10,> 10,> 10
Cc1cn2cc(-n3cnc4ccc(N(C)C5CCNCC5)cc4c3=O)cc(F)c2n1 [Compound 2200],> 10,> 10,> 10
Cc1cn2nc(-n3cnc4ccc(N5CCNCC5)cc4c3=O)cc(C)c2n1 [Compound 2201],> 10,> 10,> 10
Cc1cc(-c2ccc3c(=O)[nH]c(N4CCNCC4)nc3c2)cc2cn(C)nc12 [Compound 2211],> 10,> 10,> 10
Cc1cc(-c2ccc3c(=O)[nH]c(N4CCN(C)CC4)nc3c2)cc2cn(C)nc12 [Compound 2212],> 10,1 to 10,1 to 10
Cc1cc(-c2nc3cc(N4CCNCC4)ccc3c(=O)[nH]2)cc2cn(C)nc12 [Compound 2213],> 10,1 to 10,> 10

# Second part, the molecule after the results:
IC50 (Target C) [µM],GI50 [1] [µM],IC50 (SMN2 mRNA) [µM],SMILES
> 10,> 10,> 10,Cc1cc(-c2ccc3ncn(C4CCNCC4)c(=O)c3c2)cc2cn(C)nc12 [Compound 2169]
> 10,> 10,> 10,Cc1cc(-c2ccc3ncn(C4CCN(C)CC4)c(=O)c3c2)cc2cn(C)nc12 [Compound 2170]
> 10,> 10,> 10,CN1CCC(Nc2ccc3ncn(-c4ccc5nn(C)cc5c4)c(=O)c3c2)CC1 [Compound 2171]
1 to 10,1 to 10,1 to 10,Cc1cn2cc(-n3cnc4ccc(N5CCN(C)CC5)cc4c3=O)cc(F)c2n1 [Compound 2197]
1 to 10,1 to 10,1 to 10,Cc1cn2nc(-n3cnc4ccc(N5CCN(C)CC5)cc4c3=O)cc(C)c2n1 [Compound 2202]
